Experimental data from PubChem BioAssay AID256 (DTP/NCI, 2004).
Several values for one entry are separate records, joined by “and”; a condition that tells them apart may be missing. Equal values may be shown once. Inconclusive results and toxic doses are left out.

System: CD2F1 mice, L1210 leukemia ip, survival T/C
Test: NCI In Vivo Anticancer Drug Screen. Data for tumor model L1210 Leukemia (intraperitoneal) in CD2F1 (CDF1) mice
Conditions: endpoint: median survival time, higher = longer survival
Outline: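 Vehicle-treated tumor-bearing mice served as controls (C) for compound-treated mice (T). Reported figure is T divided by C.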

**Q.** With `COc1cc([C@@H]2c3cc4c(cc3[C@@H](OC3OC5COC(C)OC5C(O)C3O)[C@H]3COC(=O)[C@H]23)OCO4)cc(OC)c1O` (stereo partly drawn) as the compound, how does the T/C (dose: 16.0 mg/kg/injection, schedule: Q04DX003 (ip), vehicle: other) read?
**A.** Its T/C is 212 % of control.

**Q.** What about the T/C (dose: 16.0 mg/kg/injection, schedule: Q08DX002 (ip), vehicle: other) of the same compound?
**A.** Its T/C is 200 % of control.

**Q.** What about the T/C (dose: 32.0 mg/kg/injection, schedule: Q01DX001 (ip), vehicle: other) of the same compound?
**A.** Its T/C is 162 % of control.

**Q.** What about the T/C (dose: 32.0 mg/kg/injection, schedule: Q01DX001 (oral), vehicle: Klucel (hydroxypropylcellulose) (HPC)) of the same compound?
**A.** The T/C was 105 % of control.

**Q.** And the T/C (dose: 32.0 mg/kg/injection, schedule: Q01DX001 (sc), vehicle: other)?
**A.** Its T/C is 150 % of control.

**Q.** And the T/C (dose: 32.0 mg/kg/injection, schedule: Q01DX009 (ip), vehicle: other)?
**A.** Its T/C is 87 % of control.

**Q.** And the T/C (dose: 32.0 mg/kg/injection, schedule: Q01DX009 (ip), vehicle: saline)?
**A.** The T/C was 110 % of control.

**Q.** What about the T/C (dose: 32.0 mg/kg/injection, schedule: Q01DX009 (oral), vehicle: Klucel (hydroxypropylcellulose) (HPC)) of the same compound?
**A.** Its T/C is 122 % of control.

**Q.** What about the T/C (dose: 32.0 mg/kg/injection, schedule: Q01DX009 (sc), vehicle: other) of the same compound?
**A.** The T/C was 87 % of control.

**Q.** And the T/C (dose: 32.0 mg/kg/injection, schedule: Q03HX008 (oral), vehicle: Klucel (hydroxypropylcellulose) (HPC))?
**A.** Its T/C is 122 % of control.

**Q.** What about the T/C (dose: 32.0 mg/kg/injection, schedule: Q03HX016 (oral), vehicle: Klucel (hydroxypropylcellulose) (HPC)) of the same compound?
**A.** Its T/C is 116 % of control.

**Q.** What about the T/C (dose: 32.0 mg/kg/injection, schedule: Q04DX003 (ip), vehicle: other) of the same compound?
**A.** Its T/C is 206 % of control.

**Q.** And the T/C (dose: 32.0 mg/kg/injection, schedule: Q04DX003 (oral), vehicle: Klucel (hydroxypropylcellulose) (HPC))?
**A.** Its T/C is 105 % of control.

**Q.** And the T/C (dose: 32.0 mg/kg/injection, schedule: Q08DX002 (ip), vehicle: other)?
**A.** The T/C was 200 % of control.

**Q.** And the T/C (dose: 32.0 mg/kg/injection, schedule: Q08DX002 (oral), vehicle: Klucel (hydroxypropylcellulose) (HPC))?
**A.** The T/C was 111 % of control.

**Q.** And the T/C (dose: 64.0 mg/kg/injection, schedule: Q01DX001 (ip), vehicle: other)?
**A.** The T/C was 218 % of control.

**Q.** What about the T/C (dose: 64.0 mg/kg/injection, schedule: Q01DX001 (oral), vehicle: Klucel (hydroxypropylcellulose) (HPC)) of the same compound?
**A.** The T/C was 111 % of control.

**Q.** And the T/C (dose: 64.0 mg/kg/injection, schedule: Q01DX001 (sc), vehicle: other)?
**A.** Its T/C is 187 % of control.

**Q.** What about the T/C (dose: 64.0 mg/kg/injection, schedule: Q01DX009 (ip), vehicle: saline) of the same compound?
**A.** The T/C was 102 % of control.

**Q.** And the T/C (dose: 64.0 mg/kg/injection, schedule: Q01DX009 (oral), vehicle: other)?
**A.** The T/C was 162 % of control.

**Q.** And the T/C (dose: 64.0 mg/kg/injection, schedule: Q03HX008 (oral), vehicle: Klucel (hydroxypropylcellulose) (HPC))?
**A.** Its T/C is 116 % of control.

**Q.** And the T/C (dose: 64.0 mg/kg/injection, schedule: Q03HX024 (oral), vehicle: Klucel (hydroxypropylcellulose) (HPC))?
**A.** The T/C was 94 % of control.

**Q.** What about the T/C (dose: 64.0 mg/kg/injection, schedule: Q04DX003 (ip), vehicle: other) of the same compound?
**A.** The T/C was 156 % of control.

**Q.** And the T/C (dose: 64.0 mg/kg/injection, schedule: Q04DX003 (oral), vehicle: Klucel (hydroxypropylcellulose) (HPC))?
**A.** The T/C was 122 % of control.

**Q.** What about the T/C (dose: 64.0 mg/kg/injection, schedule: Q08DX002 (ip), vehicle: other) of the same compound?
**A.** The T/C was 212 % of control.

**Q.** And the T/C (dose: 64.0 mg/kg/injection, schedule: Q08DX002 (oral), vehicle: Klucel (hydroxypropylcellulose) (HPC))?
**A.** The T/C was 111 % of control.

**Q.** What about the T/C (dose: 128.0 mg/kg/injection, schedule: Q01DX001 (ip), vehicle: other) of the same compound?
**A.** Its T/C is 112 % of control.

**Q.** And the T/C (dose: 128.0 mg/kg/injection, schedule: Q01DX001 (oral), vehicle: Klucel (hydroxypropylcellulose) (HPC))?
**A.** Its T/C is 111 % of control.

**Q.** And the T/C (dose: 128.0 mg/kg/injection, schedule: Q01DX001 (sc), vehicle: other)?
**A.** Its T/C is 87 % of control.

**Q.** What about the T/C (dose: 128.0 mg/kg/injection, schedule: Q03HX008 (oral), vehicle: Klucel (hydroxypropylcellulose) (HPC)) of the same compound?
**A.** The T/C was 122 % of control.

**Q.** What about the T/C (dose: 128.0 mg/kg/injection, schedule: Q03HX016 (oral), vehicle: Klucel (hydroxypropylcellulose) (HPC)) of the same compound?
**A.** The T/C was 150 % of control.

**Q.** What about the T/C (dose: 128.0 mg/kg/injection, schedule: Q04DX003 (ip), vehicle: other) of the same compound?
**A.** The T/C was 118 % of control.

**Q.** What about the T/C (dose: 128.0 mg/kg/injection, schedule: Q04DX003 (oral), vehicle: Klucel (hydroxypropylcellulose) (HPC)) of the same compound?
**A.** The T/C was 116 % of control.

**Q.** And the T/C (dose: 128.0 mg/kg/injection, schedule: Q08DX002 (ip), vehicle: other)?
**A.** Its T/C is 175 % of control.

**Q.** And the T/C (dose: 128.0 mg/kg/injection, schedule: Q08DX002 (oral), vehicle: Klucel (hydroxypropylcellulose) (HPC))?
**A.** Its T/C is 111 % of control.

**Q.** And the T/C (dose: 256.0 mg/kg/injection, schedule: Q01DX001 (oral), vehicle: Klucel (hydroxypropylcellulose) (HPC))?
**A.** The T/C was 122 % of control.

**Q.** What about the T/C (dose: 256.0 mg/kg/injection, schedule: Q01DX001 (oral), vehicle: other) of the same compound?
**A.** Its T/C is 118 % of control and 112 % of control.

**Q.** And the T/C (dose: 256.0 mg/kg/injection, schedule: Q01DX001 (sc), vehicle: other)?
**A.** Its T/C is 87 % of control.

**Q.** And the T/C (dose: 256.0 mg/kg/injection, schedule: Q04DX003 (oral), vehicle: Klucel (hydroxypropylcellulose) (HPC))?
**A.** Its T/C is 122 % of control.

**Q.** What about the T/C (dose: 256.0 mg/kg/injection, schedule: Q08DX002 (oral), vehicle: Klucel (hydroxypropylcellulose) (HPC)) of the same compound?
**A.** The T/C was 111 % of control.

**Q.** And the T/C (dose: 512.0 mg/kg/injection, schedule: Q01DX001 (oral), vehicle: Klucel (hydroxypropylcellulose) (HPC))?
**A.** Its T/C is 122 % of control.

**Q.** And the T/C (dose: 512.0 mg/kg/injection, schedule: Q01DX001 (oral), vehicle: other)?
**A.** Its T/C is 150 % of control.

**Q.** What about the T/C (dose: 512.0 mg/kg/injection, schedule: Q01DX009 (oral), vehicle: other) of the same compound?
**A.** The T/C was 100 % of control and 112 % of control.

**Q.** What about the T/C (dose: 512.0 mg/kg/injection, schedule: Q08DX002 (oral), vehicle: Klucel (hydroxypropylcellulose) (HPC)) of the same compound?
**A.** The T/C was 105 % of control.

**Q.** What about the T/C (dose: 1024.0 mg/kg/injection, schedule: Q01DX001 (oral), vehicle: Klucel (hydroxypropylcellulose) (HPC)) of the same compound?
**A.** Its T/C is 122 % of control.

**Q.** And the T/C (dose: 1024.0 mg/kg/injection, schedule: Q01DX001 (oral), vehicle: other)?
**A.** Its T/C is 150 % of control.

**Q.** And the T/C (dose: 1024.0 mg/kg/injection, schedule: Q01DX009 (oral), vehicle: other)?
**A.** Its T/C is 87 % of control and 100 % of control.

**Q.** What about the T/C (dose: 1024.0 mg/kg/injection, schedule: Q08DX002 (oral), vehicle: Klucel (hydroxypropylcellulose) (HPC)) of the same compound?
**A.** The T/C was 111 % of control.
